Literature values as cited in EP2343054A1, “Pellets and microparticles of pravastatin sodium and a process of making them” (LEK Pharmaceuticals d.d., priority 2010, dated 2011).

Columns and labels:
[1] = pH of 7.0
[2] = pH 3 or less, as found in the stomach

Row | Structure (SMILES) | partition coefficient (octanol/water) [1] | stability at low pH [2] | average oral absorption | absolute bioavailability (oral)
1 | CC[C@H](C)C(=O)O[C@H]1C[C@H](O)C=C2C=C[C@H](C)[C@H](CC[C@@H](O)C[C@@H](O)CC(=O)O)[C@H]21 [Pravastatin sodium] | 0.23 | very unstable |  | 
2 | CC[C@H](C)C(=O)O[C@H]1C[C@H](O)C=C2C=C[C@H](C)[C@H](CC[C@@H](O)C[C@@H](O)CC(=O)O)[C@H]21 [pravastatin, (+)-(3R, 5R) -3,5-dihydroxy-7-[(1 S, 2S, 6S, 8S, 8aR)-6-hydroxy-2-methyl-8-[(S)-2-methylbutyryloxy]-1,2,6,7,8,8a-hexahydro-1-naphthyl] heptanoate] |  |  | 34% | 17%
